In brackets after ≈: the same amount, converted by molar mass.
Legend:
[1] = system: BEAS-2B (human normal lung epithelial cells); format: cell-based; conditions: 48 h exposure, 0-100 µM, resazurin fluorescence; means ± S.D, n = 3; read-out: IC50 on cell viability, BEAS-2B
Procedure: (§1) The impact of ENN or BEA on the viability of human cells were evaluated as previously described. Cells used were human normal lung epithelial cells BEAS-2B (ATCC CRL-9609), human intestinal cell line Caco-2 (ATCC HTB-37), human normal epidermal keratinocytes (HEK) (from Lonza), human liver cell line HEPG2 (ATCC HB-8065), human normal endothelial cells (Human Umbilical Vein Endothelial Cells, HUVEC) (from Sigma-Aldrich, Lyon, France), and human gastric cell line N87 (ATCC CRL-5822). BEAS-2B, Caco-2 and HEPG2 cells were cultured in DMEM supplemented with 10% fetal calf serum (FCS), 1% L-glutamine, and 1% antibiotics (all from Invitrogen (Carlsbad, CA, USA). N87 cells were cultured in RPMI media supplemented with 10% fetal calf serum (FCS), 1% L-glutamine, and 1% antibiotics (all from Invitrogen, Carlsbad, CA, USA). HEK and HUVEC cells were cultured in specific medium (from Lonza and Sigma Aldrich, respectively). Cells were routinely grown on 25 cm^2 flasks and maintained in a 5% CO2 incubator at 37 °C. For toxicity assay, human cells grown on 25 cm^2 flasks were detached using trypsin-EDTA solution (from Thermofisher), counted using Malassez counting chamber, diluted in appropriate culture media, and seeded into 96-well cell culture plates (Greiner bio-one, Paris, France) at approximately 10^4 cells per well. The cells were left to grow for 48–72 h at 37 °C in a 5% CO2 incubator until they reached confluence. Media from wells was then aspirated and cells were treated with 100 µL of appropriate culture media containing increasing concentrations of ENN or BEA (from 0 to 100 µM, 1:2 serial dilution). […] The plates were then incubated at 37 °C for 48 h. Resazurin-based in vitro toxicity assay kit (from Sigma-Aldrich, Lyon, France) was then used to assess the viability of the cells following manufacturer’s instructions. Briefly, resazurin stock solution was diluted 1:10 in sterile PBS containing calcium and magnesium (PBS^++, pH 7.4). Plates were aspirated and 100 µL of the diluted solution were added per wells. After 4 h incubation at 37 °C, fluorescence intensity was measured using microplate reader (Biotek, Synergy Mx, Colmar, France) with an excitation wavelength of 530 nm and an emission wavelength of 590 nm. The fluorescence values were normalized by the controls (untreated cells) and expressed as percentage of cell viability. The IC50 values of ENN or BEA (i.e., the concentrations causing a reduction of 50% of the cell viability) were calculated using GraphPad® Prism 7 software (San Diego, CA, USA). Experiments were conducted in triplicate (n = 3).

[2] = system: Caco-2 (human intestinal cell line); format: cell-based; conditions: 48 h exposure, 0-100 µM, resazurin fluorescence; means ± S.D, n = 3; read-out: IC50 on cell viability, Caco-2
Procedure: as §1

[3] = system: HEPG2 (human liver cell line); format: cell-based; conditions: 48 h exposure, 0-100 µM, resazurin fluorescence; means ± S.D, n = 3; read-out: IC50 on cell viability, HEPG2
Procedure: as §1

[4] = system: HUVEC (human normal endothelial cells); format: cell-based; conditions: 48 h exposure, 0-100 µM, resazurin fluorescence; means ± S.D, n = 3; read-out: IC50 on cell viability, HUVEC
Procedure: as §1

[5] = lipid monolayer on PBS pH 7.4, peptide 1 µM, extrapolated to delta pressure 0; -- = absence of interaction
Procedure: Peptide–lipid interaction was evaluated using reconstituted lipid monolayer at the air–water interface as previously described. Pure prokaryotic and eukaryotic lipids used were: POPC (1-palmitoyl-2-oleoyl-glycero-3-phosphocholine), POPE (1-palmitoyl-2-oleoyl-sn-glycero-3-phosphoethanolamine), POPG (1-palmitoyl-2-oleoyl-sn-glycero-3-phospho-(1’-rac-glycerol), and cardiolipin, all from Avanti Polar Lipid (Alabama, USA). LTA (Lipoteichoic acid from B. subtilis) was obtained from Invivogen SAS (Toulouse, France). Pure lipids were reconstituted in chloroform:methanol (2:1, v:v) at 1 mg/mL and stored at −20 °C under nitrogen. The interaction and insertion of the ENN and BEA into lipids were evaluated through the measurement of their critical pressure of insertion as previously described. Briefly, lipids were spread using a 50 µL Hamilton’s syringe at the surface of 800 µL of sterile PBS creating a lipid monolayer at the air–water interface. Lipids were added until the surface pressure reached the desired value. After 5–10 min of incubation allowing evaporation of the solvent and stabilization of the initial surface pressure, 8 µL of ENN or BEA diluted in sterile PBS at 100 µM were injected into the 800 µL sub-phase of PBS under the lipid monolayer (pH 7.4, volume 800 µL) using a 10 µL Hamilton syringe giving a final concentration of peptides of 1 µM, preliminary experiments having shown that this concentration gave optimal insertion. The variation of the surface pressure caused by peptide injection was then continuously monitored using a fully automated microtensiometer (µTROUGH SX, Kibron Inc., Helsinki, Finland) until reaching equilibrium (maximal surface pressure increase being usually obtained after 15–25 min). The critical pressure of insertion of each peptide was determined by changing the initial pressure of lipid monolayer (from 10 and 30 mN/m) and measuring the variation of pressure caused by the insertion of the peptide. The critical pressure of insertion of each peptide in a particular lipid was determined graphically and calculated as the theoretical value of initial pressure of lipid monolayer not permissive to peptide insertion, i.e., causing a variation of pressure equal to 0 mN/m.

[6] = system: Bacillus subtilis (ATCC 6633)
[7] = system: Clostridium perfringens (ATCC 13124)
[8] = system: Helicobacter pylori (ATCC 43504)
[9] = system: Pseudomonas aeruginosa (ATCC CRM-9027)
[10] = system: Mycobacterium smegmatis (mc2155, ATCC 700084); conditions: mc2155, 72 h
[11] = system: F. oxysporum (DSMZ 62316); conditions: DSMZ 62316, pH 7
[12] = system: F. verticillioides (DSMZ 62264); conditions: DSMZ 62264, pH 7
[13] = system: human erythrocytes; conditions: pH 7.4

Row | SMILES | IC50 [1] | IC50 [2] | IC50 [3] | IC50 [4] | critical pressure of insertion, POPG [5] | MIC, B. subtilis [6] | MIC, C. perfringens [7] | MIC, H. pylori [8] | MIC, P. aeruginosa [9] | MIC, M. smegmatis [10] | MIC, F. oxysporum [11] | MIC, F. verticillioides [12] | HC50 (dose causing 50% hemolysis), Erythrocytes [13]
1 | CC(C)[C@H]1C(=O)O[C@H](C(C)C)C(=O)N(C)[C@@H](C(C)C)C(=O)O[C@H](C(C)C)C(=O)N(C)[C@@H](C(C)C)C(=O)O[C@H](C(C)C)C(=O)N1C [ENN B] | 43.7 ± 7.7 µM | 4.6 ± 1.3 µM | 3.4 ± 0.7 µM | 17.3 ± 3.3 µM | 34.67 mN/m | >100 µM | 12.5 µM (≈ 8 µg/mL) | >100 µM | >100 µM | 100 µM (≈ 64 µg/mL) | >100 µM | >100 µM | 534.5 µM
2 | CC[C@H](C)[C@H]1C(=O)O[C@H](C(C)C)C(=O)N(C)[C@@H]([C@@H](C)CC)C(=O)O[C@H](C(C)C)C(=O)N(C)[C@@H](C(C)C)C(=O)O[C@H](C(C)C)C(=O)N1C [ENN A1] | 6.4 ± 1.5 µM | 2.7 ± 0.5 µM | 5.6 ± 1.1 µM | 4.6 ± 0.9 µM | 41.10 mN/m | 12.5 to 25 µM |  | >100 µM | >100 µM | 3.12 µM (≈ 2.08 µg/mL) | >100 µM | >100 µM | 162.7 ± 22.8 µM
3 | CC[C@H](C)[C@H]1C(=O)O[C@H](C(C)C)C(=O)N(C)[C@@H](C(C)C)C(=O)O[C@H](C(C)C)C(=O)N(C)[C@@H](C(C)C)C(=O)O[C@H](C(C)C)C(=O)N1C [ENN B1] | 12.7 ± 2.8 µM | 3.1 ± 0.5 µM | 5.6 ± 1.4 µM | 7 ± 1.1 µM | 41.71 mN/m | 25 to 50 µM | 6.25 µM (≈ 4.09 µg/mL) | >100 µM | >100 µM | 6.25 µM (≈ 4.09 µg/mL) | >100 µM | >100 µM | 356.4 ± 59.3 µM
4 | CC[C@H](C)[C@H]1C(=O)O[C@H](C(C)C)C(=O)N(C)[C@@H]([C@@H](C)CC)C(=O)O[C@H](C(C)C)C(=O)N(C)[C@@H]([C@@H](C)CC)C(=O)O[C@H](C(C)C)C(=O)N1C [ENN A] | 5.7 ± 1.2 µM | 1.1 ± 0.2 µM | 3 ± 0.7 µM | 2.8 ± 0.6 µM | 44.75 mN/m | 6.25 to 12.5 µM | 3.12 µM (≈ 2.13 µg/mL) | >100 µM | >100 µM | 6.25 µM (≈ 4.26 µg/mL) | >100 µM | >100 µM | 68.7 µM
